Experimental data as given in patent US6841361B1, “Methods of producing recombinant insulin from novel fused proteins” (Itoham Foods Inc., priority 1999, dated 2005).

Test: Plasma glucose level after subcutaneous injection of insulin in rabbits
Type: in vivo, Japanese Wister rabbit
Details: rabbit, 0.5 ml of 1 unit/ml
Description: For each insulin sample, an aliquot was taken from the fractions so that the insulin contents for both kinds of insulin calculated based on the main peak areas became same, and then dried.
The resulting solution (0.5 ml) was subcutaneously injected to the back of a Japanese Wister rabbit (Kbs:JW, […]). After the injection, blood was collected from the anterior auricular vein of the rabbit over a period of time. Each blood sample (0.45 ml) was added with a mix of glycolysis-inhibiting agents (NaF: 12.5 mg/ml, heparin-Na: 125 units/ml, EDTA-2Na: 48 mg/ml) ([…]]) and fully mixed. The mixed solution was centrifuged at 3,000 rpm for 15 min. at 5° C., and the supernatant was used as a plasma sample. For each plasma sample, the plasma glucose level was determined using a biochemical automated analyzer (CIBA-CORNING; Express PLUS), and the plasma insulin level was determined using EIA kit (Wako Pure Chemical Industries, Ltd.).

Substance: Novolin: a commercially available insulin, Novolin 40, (Novo Nordisk Pharma); insulin fractions re-purified by HPLC before testing
- time course of the plasma glucose level after the injection of insulin (subcutaneous injection to the back, FIG. 9): showed the decrease in plasma glucose level
- plasma glucose level compared with ITOHAM insulin (subcutaneous, relative to ITOHAM insulin): slight lower plasma glucose level
